We go through eleven compounds from ChEMBL document CHEMBL1201862, “PubChem BioAssay data set” (2004).

The structures appear in SMILES notation.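 The compound was tested at five concentrations on cells cultured in 96-well plates, with a 48-hour exposure period. GI50: concentration for 50% inhibition of growth.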 The source made the active and inactive calls. No stated cut-off is given here; in the data, active = GI50 up to about 1.1 µM and inactive = higher.

Holding throughout (test): DTP human tumour cell line panel, 48 h
Experiment [1] relates to SK-MEL-5.
Experiment [2] concerns RPMI-8226.
The test system of experiment [3] is UACC-62.
The test system of experiment [4] is T47D.
Experiment [5] relates to HCT-116.
The subject of experiment [6] is HOP-92.
In experiment [7] the test system is A549.
Experiment [8] concerns HOP-62.
Experiment [9] deals with OVCAR-5.
In experiment [10] the test system is OVCAR-3.
For experiment [11], the system named is SN12C.
For experiment [12], the system named is Hs-578T.
In experiment [13] the test system is HL-60.
In experiment [14] the test system is SK-MEL-2.
Experiment [15] deals with COLO 205.
Experiment [16] relates to Malme-3M.
Experiment [17] has as its system NCI-H522.
The subject of experiment [18] is NCI-H226.
In experiment [19] the test system is A498.

Take `COc1ccc(C2C(C#N)=C(S)N(C3OC(COC(C)=O)C(OC(C)=O)C(OC(C)=O)C3OC(C)=O)C(C)=C2C(C)=O)cc1` (configuration not stated): the GI50 was 26.4 µM (inactive) in experiment [1]; 73.1 µM (inactive) in [2]; 57.5 µM (inactive) in experiment [3]; 28.6 µM (inactive) in experiment [4]; 65 µM (inactive) in [5]; 30 µM (inactive) in experiment [6]. Also, the GI50 was 70.6 µM (inactive) in experiment [7]; > 100 µM (inactive) in experiment [8]; > 100 µM (inactive) in [9]; 64.7 µM (inactive) in experiment [10]; > 100 µM (inactive) in experiment [11]; 59.3 µM (inactive) in experiment [12]. Moreover, the GI50 in [13] is 46.3 µM (inactive); in experiment [14] it was > 100 µM (inactive); in experiment [15] it was 58.2 µM (inactive); in experiment [16], > 100 µM (inactive).

Take `CCN(CCCN(CC)C(=O)N[C@@H](Cc1ccccc1)C(=O)NC)C(=O)N[C@@H](Cc1ccccc1)C(=O)NC`: the GI50 in [1], in experiment [3], in experiment [4], in [5], in experiment [6] and in [17] was > 100 µM (inactive) each time. Also, the GI50 in experiment [18], in experiment [7], in [8], in experiment [9], in experiment [10] and in experiment [12] was > 100 µM (inactive) each time. In addition, the GI50 in experiment [14], in experiment [15], in experiment [16] and in [19] was > 100 µM (inactive) throughout.

Take `O=C(Nc1ccc(Br)c2ccccc12)c1ccc2ccccc2c1O`: the GI50 in experiment [1] was 1.61 µM (inactive); in [3] it was 1.82 µM (inactive); in [4], 1.73 µM (inactive); in experiment [5] it was 2.85 µM (inactive); in [17] it was 1.71 µM (inactive); in [18], 1.87 µM (inactive). The GI50 in [7] is 1.77 µM (inactive); in experiment [8] it was 2.32 µM (inactive); in experiment [9], 2.75 µM (inactive); in experiment [10], 3.37 µM (inactive); in experiment [11] it was 3.39 µM (inactive); in [12], 2.79 µM (inactive). The GI50 is 3.64 µM (inactive) in experiment [13]; 0.597 µM (active) in [14]; 2.11 µM (inactive) in experiment [15]; 1.36 µM (inactive) in experiment [16]; 2.52 µM (inactive) in [19].

Regarding `CCOC(=O)[C@@H]1C[C@@H]1c1ccc(O)c(O)c1`, the GI50 in [1] was 14.4 µM (inactive); in experiment [2], 18.1 µM (inactive); in [3] it was 13.4 µM (inactive); in [4], 16 µM (inactive); in [5] it was 16.3 µM (inactive); in experiment [6], 36.7 µM (inactive). Besides, the GI50 in experiment [17] is 4.62 µM (inactive); in experiment [18] it was 22.5 µM (inactive); in experiment [7], 29.4 µM (inactive); in experiment [8], 17.6 µM (inactive); in experiment [9], > 100 µM (inactive); in experiment [10], 16.6 µM (inactive). Besides, the GI50 in experiment [11] was 78.2 µM (inactive); in experiment [12], 43.1 µM (inactive); in experiment [14] it was 29.7 µM (inactive); in experiment [15] it was 27.4 µM (inactive); in [16] it was 49.2 µM (inactive).

In the case of `COc1ccc(NC(=O)CC(=O)N2N=C(N3CCCCC3)CC2c2ccccc2)cc1` (configuration not stated), the GI50 was > 100 µM (inactive) in experiment [1]; > 100 µM (inactive) in experiment [3]; > 100 µM (inactive) in experiment [4]; > 100 µM (inactive) in experiment [5]; 99.5 µM (inactive) in experiment [6]; > 100 µM (inactive) in experiment [17]. Also, the GI50 in experiment [18], in experiment [7], in [8], in experiment [9], in experiment [10] and in experiment [11] was > 100 µM (inactive) in each case. The GI50 in experiment [12], in experiment [13], in [14], in experiment [15], in experiment [16] and in experiment [19] was > 100 µM (inactive) each time.

With `COc1c(-c2cc(C)c(Cl)c(=O)[nH]2)c(O)c(OC)c2occc12`, the GI50 in experiment [1] is 78.3 µM (inactive); in [2], > 100 µM (inactive); in [3] it was 64 µM (inactive); in experiment [4] it was > 100 µM (inactive); in experiment [5], > 100 µM (inactive); in [6], 23.1 µM (inactive). For the same compound, the GI50 in experiment [17], in experiment [18], in [7], in experiment [8], in [9] and in experiment [10] was > 100 µM (inactive) in each case. Further, the GI50 in [11] is > 100 µM (inactive); in [12], > 10 µM (inactive); in [13], > 100 µM (inactive); in experiment [14] it was > 100 µM (inactive); in experiment [15], > 100 µM (inactive); in experiment [16], > 100 µM (inactive).

Consider `CN1C(=O)C2CCC(=O)N2c2cccnc21` (configuration not stated), for which the GI50 in experiment [1], in experiment [2], in experiment [3], in experiment [4], in experiment [5] and in experiment [17] was > 100 µM (inactive) each time. The GI50 in experiment [18], in [7], in [8], in experiment [10], in experiment [11] and in [12] was > 100 µM (inactive) throughout. Also, the GI50 in experiment [13], in experiment [14], in experiment [15] and in experiment [16] was > 100 µM (inactive) in each case.

As for `COC(=O)[C@]1(C)CCC[C@]2(C)[C@H]3CC[C@]4(C(C)C)OO[C@@H](O4)[C@]34O[C@@H]4C[C@H]21`, the GI50 in [1] was 1.69 µM (inactive); in experiment [2] it was 3.44 µM (inactive); in experiment [3], 5.3 µM (inactive); in [4] it was 1.76 µM (inactive); in [5] it was 1.63 µM (inactive); in experiment [6], 1.97 µM (inactive). For the same compound, the GI50 in experiment [17] is 1.43 µM (inactive); in experiment [18] it was 4.49 µM (inactive); in experiment [7], 1.81 µM (inactive); in experiment [8], 2.12 µM (inactive); in [9] it was 5.18 µM (inactive); in [10] it was 1.8 µM (inactive). Also, the GI50 in experiment [11] is 3.02 µM (inactive); in experiment [12], 2.63 µM (inactive); in experiment [13] it was 1.68 µM (inactive); in [14], 14.3 µM (inactive); in [15], 2.14 µM (inactive); in experiment [16], 6.68 µM (inactive).

For the compound `O=c1c2ccccc2nc2n1NC(c1c(Cl)cccc1Cl)N2c1cccc(Cl)c1` (configuration not stated), the GI50 in experiment [1] was 16.6 µM (inactive); in [2], 4.69 µM (inactive); in experiment [3] it was 5.86 µM (inactive); in experiment [4], 5.56 µM (inactive); in experiment [5] it was 3.27 µM (inactive); in experiment [6], 4.52 µM (inactive). For the same compound, the GI50 in [17] is 10.4 µM (inactive); in [18], 2.56 µM (inactive); in experiment [7] it was 5.2 µM (inactive); in experiment [8], 8.38 µM (inactive); in experiment [9], 4.54 µM (inactive); in [10], 10.6 µM (inactive). In addition, the GI50 was 4.71 µM (inactive) in [11]; 7.55 µM (inactive) in experiment [12]; > 100 µM (inactive) in [13]; 39.1 µM (inactive) in experiment [14]; 8.53 µM (inactive) in [15]; 8.99 µM (inactive) in experiment [16].

Regarding `COC(=O)c1cc(-c2c[nH]cc2C(=O)OCc2ccccc2)cn1S(=O)(=O)c1ccc(C)cc1`, the GI50 in experiment [1] is 4.16 µM (inactive); in experiment [3], > 100 µM (inactive); in [4], 4.71 µM (inactive); in experiment [5] it was > 100 µM (inactive); in [17], > 100 µM (inactive); in [7] it was > 100 µM (inactive). Also, the GI50 in [8], in experiment [9], in [10], in [11], in [12] and in experiment [14] was > 100 µM (inactive) throughout. Moreover, the GI50 in experiment [15], in experiment [16] and in [19] was > 100 µM (inactive) in each case.

`COC(=O)C(Cc1ccccc1)NP(=O)(O)OCC1OC(n2cc(Br)c(=O)[nH]c2=O)CC1O` (configuration not stated): the GI50 in experiment [1], in [3], in experiment [4], in experiment [5], in experiment [6] and in experiment [17] was > 100 µM (inactive) each time. For the same compound, the GI50 in experiment [18], in experiment [7], in experiment [8], in experiment [9], in experiment [10] and in [11] was > 100 µM (inactive) each time. Besides, the GI50 in [12], in experiment [13], in experiment [14], in experiment [15], in experiment [16] and in experiment [19] was > 100 µM (inactive) in each case.

Broadly, the GI50 is the concentration giving 50% growth inhibition.
